From patent US20180099950A1, “APOPTOSIS SIGNAL-REGULATING KINASE INHIBITOR” (Gilead Sciences, Inc., priority 2012, published 2018) come the findings set out here.

Molecules are shown by their SMILES. Read-outs that look alike come from different tables or passages of the source.

The nature of data set [1]: Determination of percent of compound bound to plasma (equilibrium dialysis). The note with it: human. It counts as in vitro ADME. The text has this: Sample vials were weighed and recorded.
Background: Equilibrium dialysis compares concentrations on both sides of a semipermeable membrane.

Data set [2] is described as follows: Rat pharmacokinetics, 1 mg/kg IV infusion and 5.0 mg/kg PO. It counts as in vivo. The method, then:
Pharmacokinetics of Test Compounds following a 1 mg/kg IV infusion and 5.0 mg/kg PO dose in rats
For IV administration the test compound was formulated in 60:40 PEG 400:water with 1 equivalent HCl at 0.5 mg/mL. […] For PO (oral) administration, the test compound was formulated in 5/75/10/10 ethanol/PG/solutol/water at 2.5 mg/mL.
IV and PO dosing groups each consisted of 3 male SD rats. […] The animals were fasted overnight prior to dose administration and up to 4 hr after dosing.
For the IV infusion group, the test compound was administered by intravenous infusion over 30 minutes. The rate of infusion was adjusted according to the body weight of each animal to deliver a dose of 1 mg/kg at 2 mL/kg. For the oral dosing group, the test article was administered by oral gavage at 2 mL/kg for a dose of 5.0 mg/kg.
Serial venous blood samples (approximately 0.4 mL each) were taken at specified time points after dosing from each animal. The blood samples were collected into Vacutainer™ tubes (Becton-Disckinson Corp, N.J., USA) containing EDTA as the anti-coagulant and were immediately placed on wet ice pending centrifugation for plasma.
An LC/MS/MS method was used to measure the concentration of test compound in plasma.
Non-compartmental pharmacokinetic analysis was performed on the plasma concentration-time data.

For data set [3], the target named is T1, CYP3A4 (Homo sapiens, UniProt P08684).
T1 construct: from tissue; host or cells: human liver microsomes
Nature of the data set: Cytochrome P450 inhibition, CYP3A4 (midazolam and testosterone). It counts as in vitro ADME.

[4] abbreviates: pH 7.4, fraction unbound, comparative table, read-out: fu.

T1 sequence (P08684 whole entry): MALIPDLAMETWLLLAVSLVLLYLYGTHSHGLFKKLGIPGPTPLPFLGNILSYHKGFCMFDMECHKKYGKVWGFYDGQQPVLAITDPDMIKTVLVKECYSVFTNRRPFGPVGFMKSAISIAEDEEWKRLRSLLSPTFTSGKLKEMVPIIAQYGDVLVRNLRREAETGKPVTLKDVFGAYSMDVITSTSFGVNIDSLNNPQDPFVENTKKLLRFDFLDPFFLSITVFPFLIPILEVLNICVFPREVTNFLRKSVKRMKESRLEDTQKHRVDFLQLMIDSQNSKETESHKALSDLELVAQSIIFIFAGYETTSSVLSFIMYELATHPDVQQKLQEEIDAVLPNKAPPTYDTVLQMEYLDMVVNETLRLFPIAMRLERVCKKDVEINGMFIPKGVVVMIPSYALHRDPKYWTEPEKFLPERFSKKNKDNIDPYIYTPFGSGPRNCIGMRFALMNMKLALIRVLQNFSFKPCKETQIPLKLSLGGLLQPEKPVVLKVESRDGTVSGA

With `Cc1ccc(C(=O)Nc2cccc(-c3nncn3C(C)C)n2)cc1-n1cnc(C2CC2)c1` [Compound B], the fraction unbound at 3 h, 2 μM in data set [1] (setting [4]) was found to be 0.032. This compound showed a clearance in data set [2] (male, SD, rat, plasma, intravenous, 1 mg/kg, rats) of 6.5 mL/min/kg. Besides, the Vd in data set [2] (male, SD, rat, plasma, intravenous, 1 mg/kg, rats, read-out: Vss) is 0.54 L/kg. In data set [2] (male, SD, rat, plasma, rats, 5.0 mg/kg PO, read-out: oral bioavailability (% F)), the bioavailability (commonly dose-corrected exposure relative to a reference, in per cent) amounted to 50%. For the same compound, in data set [2] (male, SD, rat, plasma, rats, read-out: t½ (converted)), the half-life was 1.3 h. Moreover, in data set [2] (rat, in vivo), the “number of times the compound of formula (I) shows an improvement over the indicated compound: % F in rats” value is reported as “(1.5X)”, the “number of times the compound of formula (I) shows an improvement over the indicated compound: CL in rats” value is “(3.6X)” and the “number of times the compound of formula (I) shows an improvement over the indicated compound: t½ in rats” value was “(3.9X)”. In addition, in data set [3], the “CYP3A4 IC50/PBAdj.EC50 value of compound of formula (I) higher than that of the named compound” value is 92 times and the “number of times the compound of formula (I) shows an improvement over the indicated compound: Cyp3A4 IC50 (TST)” value was “(2.8X)”. Moreover, the IC50 (in general, the midpoint of a concentration-inhibition curve) in data set [3] (testosterone substrate, comparative table, read-out: Cyp3A4 IC50 Testesterone (TST))) is 4 µM.
`Cc1cc(F)c(C(=O)Nc2cccc(-c3nncn3C(C)C)n2)cc1-n1cnc(C2CC2)c1` [compound of formula (I), 5-(4-cyclopropyl-1H-imidazol-1-yl)—N-(6-(4-isopropyl-4H-1,2,4-triazol-3-yl)pyridin-2-yl)-2-fluoro-4-methylbenzamide]: the fraction unbound at 3 h, 2 μM in data set [1] (setting [4]) is 0.12; in data set [1] (pH 7.4, human plasma, 2 uM, 3 hours at 37 C, read-out: percent unbound) it was 0.119.
On to `CC(C)n1cnnc1-c1cccc(NC(=O)c2cccc(-n3cnc(C4CC4)c3)c2)n1` [Compound A], for which the fraction unbound at 3 h, 2 μM in data set [1] (setting [4]) stood at 0.048. In addition, in data set [2] (rat, in vivo), the “number of times the compound of formula (I) shows an improvement over the indicated compound: % F in rats” value was “(6.8X)”, the “number of times the compound of formula (I) shows an improvement over the indicated compound: CL in rats” value is listed as “(2.7X)”, the “number of times the compound of formula (I) shows an improvement over the indicated compound: Vss in rats” value is “(3.2X)” and the “number of times the compound of formula (I) shows an improvement over the indicated compound: t½ in rats” value was “(8.6X)”. Also, the t½ – broadly, the time in which the quantity being followed falls by half – in data set [2] (rats) is 0.59 h. In addition, in data set [3], the “CYP3A4 IC50/PBAdj.EC50 value of compound of formula (I) higher than that of the named compound” value is reported as 43 times and the “number of times the compound of formula (I) shows an improvement over the indicated compound: Cyp3A4 IC50 (TST)” value was “(10X)”.
